Values of other authors in patent US8182834B2, “Ternary non-lamellar lipid compositions” (Camurus AB, priority 2004, dated 2012).

CCCCCCCC/C=C\CCCCCCCC(=O)OCC(O)CO (centres unmarked) [glycerol monooleate]
equilibrium water solubility (room temperature): ~10^−7 M | Equilibrium solubility concentration (water, 25 ° C.): ~10^−7 M
